Results taken from publication PMC6155388, “Chemical Constituents of Smilax china L. Stems and Their Inhibitory Activities against Glycation, Aldose Reductase, α-Glucosidase, and Lipase” (Molecules : A Journal of Synthetic Chemistry and Natural …, 2017).

Tests used:
[1] = test system: AGEs formation; assay: AGEs formation inhibition assay (BSA with fructose and glucose, fluorescence); format: biochemical; settings: mean ± SD (n = 3); for IC50: isolated compounds, tested 10–500 µM
Experimental: In accordance with a reported protocol with slight modifications, a reaction mixture of bovine serum albumin (10 mg/mL, Sigma Aldrich) in 50 mM phosphate buffer (pH 7.4) with 0.02% sodium azide was added to 0.4M fructose and glucose. The reaction mixture (270 μL) was added to 30 μL of sequentially diluted compounds or the positive control, AMG. Each sample of extract, hexane, water fractions, EAF, NBF, and compounds 1–10 were dissolved in DMSO for the AGEs assay at five different final concentrations (10–500 µg/mL for extracts and fractions or 10–500 µM for isolated constituents). After 48 h of incubation at 60 °C, 200 μL of the reaction products was taken to 96-well plates and its fluorescence was measured using a spectrofluorometric detector (FlexStation 3, HTRF® Chemistry) at an excitation wavelength of 350 nm and an emission wavelength of 450 nm. DMSO was used as negative control instead of the sample. The IC50 values and 95% confidence intervals were obtained via regression analysis. The percentage of inhibition (%) was calculated by the following equation, where Ac stands for the fluorescence of the control and As stands for the fluorescence of the sample: (1) Inhibition(%)=Ac−As/Ac×100

[2] = biological target: T1, rat lens aldose reductase (Rattus norvegicus, UniProt P07943); assay: AR assay (rat lens homogenate, decrease in β-NADPH absorption); format: biochemical, Sprague-Dawley rats; settings: mean ± SD (n = 3); for IC50: isolated compounds, tested 0.1–100 µM
T1 construct: The rat lenses were homogenized and centrifuged at 10,000 rpm (4 °C, 20 min) and the supernatant was used as an enzyme source; from tissue; host or cells: rat lens (Sprague-Dawley)
Experimental: Lenses (one lens per 0.5 mL sodium buffer) were removed from Sprague-Dawley rats (weight 250–280 g) and stored in a deep freezer at −80 °C until use. The rat lenses were homogenized and centrifuged at 10,000 rpm (4 °C, 20 min) and the supernatant was used as an enzyme source [65]. AR activity was spectrophotometrically calculated by measuring the decrease in β-NADPH absorption rate at 340 nm for a 4 min period at 25 °C in a 96-well plate using the same detector device used in the AGEs assay. The assay mixture (300 µL) contained 0.1 M potassium phosphate buffer (pH 7.0), 0.1 M sodium phosphate buffer (pH 6.2), 1.6 mM β-NADPH, and test samples with 0.025 M of DL-glyceraldehyde as substrate. […] IC50 values were determined using the least-squares regression line of log concentration plotted against residual activity. TMG, a typical AR inhibitor, was used as the positive control. A negative control was fulfilled by using DMSO instead of the sample.

[3] = biological target: α-glucosidase from Saccharomyces cerevisiae; assay: α-Glucosidase inhibition assay (p-NPG); format: biochemical; settings: isolated compounds; tested 1–1000 µM; mean ± SD (n = 3)
Experimental: This enzyme inhibition assay was carried out by using a 96-well microplate reader and a spectrophotometer. The reaction volume (60 μL) contained 100 mM phosphate buffer (pH 6.8), 2.5 mM p-nitrophenyl α-D-glucopyranoside (p-NPG), and sample dissolved in 10% DMSO at five different final concentrations (5–100 µg/mL for extracts and fractions or 1–1000 µM for isolated constituents). A chromogenic substance was used for quantification purposes. The mixture solution was added to each well, then, 20 μL of 10 mM phosphate buffer (pH 6.8) containing 0.2 U/mL α-glucosidase was added. The plate was incubated at 37 °C for 15 min, then, 80 μL of 0.2 mol/L sodium carbonate solution was added to stop the reaction. Absorbance was measured at 405 nm immediately after reaction cessation by using a SUNRISE microplate reader (Tecan Austria GmbH, Grodig, Austria). The negative control contained the same reaction mixture with phosphate buffer substituted for the sample solution. […] The inhibition rate of α-glucosidase activity was calculated using the same equation (1) used for inhibition of AGEs formation, but absorbance was measured instead of fluorescence.

[4] = biological target: T2, porcine pancreatic lipase (Sus scrofa, UniProt P00591); assay: Lipase inhibition assay (p-NPB); format: biochemical; settings: isolated compounds; tested 10–2000 µM; mean ± SD (n = 3)
T2 construct: purchased Sigma-Aldrich Co. Type II
T2 sequence (P00591 1-450): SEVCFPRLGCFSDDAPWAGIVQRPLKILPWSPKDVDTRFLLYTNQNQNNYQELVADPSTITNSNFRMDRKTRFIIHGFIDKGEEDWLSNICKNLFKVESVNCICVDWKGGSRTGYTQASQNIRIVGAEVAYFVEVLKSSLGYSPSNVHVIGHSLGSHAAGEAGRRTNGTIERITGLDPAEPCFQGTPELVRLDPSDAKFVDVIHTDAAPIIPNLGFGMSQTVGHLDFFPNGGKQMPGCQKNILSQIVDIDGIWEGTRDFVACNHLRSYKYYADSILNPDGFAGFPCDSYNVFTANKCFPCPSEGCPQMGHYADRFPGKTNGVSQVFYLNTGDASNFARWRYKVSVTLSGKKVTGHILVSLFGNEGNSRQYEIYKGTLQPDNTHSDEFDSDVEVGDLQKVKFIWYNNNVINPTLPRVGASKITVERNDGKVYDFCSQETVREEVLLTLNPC
Experimental: Lipase inhibition activity was evaluated according to a slightly modified method of de Camargo et al. [66]. The substrate used was p-nitrophenyl butyrate (p-NPB), which is converted to p-nitro-phenol in the presence of lipase, giving a yellow color that can be used to quantify the extent of the reaction. Type II porcine pancreatic lipase was used at a concentration of 5 mg/mL. The substrate (p-NPB) was prepared in DMSO to achieve a concentration of 5 mM. Tested samples, dissolved in 10% DMSO at five different final concentrations (0.05–5.0 mg/mL for extracts and fractions or 10–2000 µM for isolated constituents), were mixed with Tris–HCl buffer (pH 7.4), and enzyme solution, with a total reaction mixture volume of 840 μL. After incubation at 37 °C for 15 min, p-NPB was added, and the solution was further incubated at 37 °C for 25 min. Then, the mixture was cooled for 2 min, and 200 μL was transferred to a 96-well plate. Absorbance was measured using the SUNRISE microplate reader. Blanks, in which enzymes were replaced with Tris–HCl buffer, were prepared for background corrections. […] The inhibition rate of lipase activity was also calculated using Equation (1).

[5] = 70% MeOH stem extracts of Smilacaceae plants
[6] = ND: no detection within test concentration

SMILES | IC50 [2, 6] [µM] | IC50 [3] [µM] | Aldose Reductase IC50 [2, 5] [µg/mL] | Aldose Reductase IC50 ([2]; SCS extract and solvent fractions, tested 10–100 µg/mL, ND: no detection within test concentration) [µg/mL] | AGEs IC50 [1, 5] [µg/mL] | AGEs IC50 ([1]; SCS extract and solvent fractions, tested 10–500 µg/mL, ND: no detection within test concentration) [µg/mL] | IC50 [1] [µM] | IC50 [4] [µM]
N=C(N)NN [AMG, aminoguanidine, reference compound] |  |  |  |  | 54.8 ± 2.1 | 54.8 ± 2.1 | 515 ± 33 | 
Oc1ccc(/C=C/c2cc(O)cc(O)c2)cc1 [trans-Resveratrol (8), 3,5,4′-Trihydroxy-trans-stilbene] | 60.5 ± 16.8 | 5.97 ± 0.2 |  |  |  |  | 148 ± 14 | 61.2 ± 11.7
C[C@@H]1O[C@@H](Oc2c(-c3ccc(O)c(O)c3)oc3cc(O)cc(O)c3c2=O)[C@H](O)[C@H](O)[C@H]1O [Quercitrin (6), Quercetin 3-O-α-L-rhamnoside] | 0.56 ± 0.14 | 135 ± 13 |  |  |  |  | 58 ± 2.5 | 96.7 ± 7
C[C@@H]1O[C@@H](Oc2c(-c3ccc(O)cc3)oc3cc(O)cc(O)c3c2=O)[C@H](O)[C@H](O)[C@H]1O [Afzelin (7), Kaempferol 3-O-α-L-rhamnoside] |  |  |  |  |  |  | 75.4 ± 3.8 | 
O=C(O)c1ccc(O)c(O)c1 [Protocatechuic acid (1), Protocatechuic acid] |  | 176 ± 7 |  |  |  |  | 418 ± 10 | 22.9 ± 0.8
O=C(/C=C/c1ccc(O)c(O)c1)OC1CC(O)(C(=O)O)CC(O)C1O (stereo not drawn) [3-O-Caffeoylquinic acid (3), 3-O-Caffeoylquinic acid] | 0.6 ± 0.03 |  |  |  |  |  | 80.5 ± 5.5 | > 1000
O=C(/C=C/c1ccc(O)c(O)c1)OC1CC(O)(C(=O)O)CC(O)C1O (stereo not drawn) [5-O-Caffeoylquinic acid (2), 5-O-Caffeoylquinic acid] | 87.5 ± 1.6 |  |  |  |  |  | 215 ± 18 | 474 ± 35
O=C(/C=C/c1ccc(O)c(O)c1)OC1C(O)CC(O)(C(=O)O)CC1O (stereo not drawn) [4-O-Caffeoylquinic acid (4), 4-O-Caffeoylquinic acid] |  | 736 ± 15 |  |  |  |  | 74.1 ± 3.1 | > 1000
O=C(O)CC1(CC(=O)O)CCCC1 [TMG, 3,3′-tetramethyleneglutaric acid, reference compound] | 6.97 ± 0.56 |  | 1.30 ± 0.10 | 1.30 ± 0.10 |  |  |  | 

Second part, led by results:

IC50 [2, 6] [µM] | IC50 [3] [µM] | Aldose Reductase IC50 [2, 5] [µg/mL] | Aldose Reductase IC50 ([2]; SCS extract and solvent fractions, tested 10–100 µg/mL, ND: no detection within test concentration) [µg/mL] | SMILES | AGEs IC50 [1, 5] [µg/mL] | AGEs IC50 ([1]; SCS extract and solvent fractions, tested 10–500 µg/mL, ND: no detection within test concentration) [µg/mL] | IC50 [1] [µM] | IC50 [4] [µM]
9.38 ± 1.46 | 609 ± 32 |  |  | CC1OC(Oc2cc(O)c3c(=O)c(OC4OC(CO)C(O)C(O)C4O)c(-c4ccc(O)cc4)oc3c2)C(O)C(O)C1O [Kaempferol 3-O-β-D-glucopyranosyl-7-O-α-L-rhamnopyranoside] |  |  | 193 ± 9 | > 1000
34.5 ± 0.1 | 154 ± 4 |  |  | COc1cc(/C=C/C(=O)OC[C@H]2O[C@@](CO)(O[C@H]3O[C@H](CO)[C@@H](O)[C@H](O)[C@H]3O)[C@@H](OC(=O)/C=C/c3ccc(O)c(OC)c3)[C@@H]2O)ccc1O [Helonioside A (9)] |  |  | 227 ± 16 | > 1000
17 ± 3.6 | 45.1 ± 2.6 |  |  | CC1OC(Oc2c(O)cc(O)c3c(=O)cc(-c4ccc(O)cc4)oc23)C(O)C(O)C1O (stereo not drawn) [Isoscutellarein-8-O-rhamnoside (10), Isoscutellarein 8-O-rhamnoside] |  |  | 440 ± 17 | 101 ± 18
